From patent US12459930B2, “Compounds for the inhibition of unregulated cell growth” (GODAVARI BIOREFINERIES LIMITED, priority 2018, dated 2025)
Read-outs that look alike come from different tables or passages of the source.

Columns and labels:
[1] = tested on: PC3 spheres (cancer stem cells); assay: In vitro sphere-forming assay (cancer stem cells), PC3 in Prostosphere media; details: for 3D sphere count of PC3 in Prostosphere media: 2000 cells/well, n = 6 ± S.D; for viability at 0.0025 µM: read-out: % Viability of spheres (PC3), 0.0025 uM
Excerpt: In Vitro Sphere-forming Assay: Sphere assay measures the ability of cancer stem cells (CSCs) to form spheres in specially designed serum-free medium.
Materials and Reagents:50×B27 Supplement (Life Technologies, Invitrogen, Catlog No.: 17502-044), Fibroblast Growth Factor (FGF) (Sigma-Aldrich, Catlog No.: F029125), Epidermal Growth Factor (EGF) (Sigma-Aldrich, Catlog No.: E9644), Insulin (Sigma, Catlog No.: 19278), Dulbecco's Modified Eagle Medium/F12 (HiMedia Catlog No.: AL139-6), Dulbecco's Phosphate Buffered Saline (HiMedia Catlog No.: TL1006), Trypan Blue (TC193), Prostate Epithelial Media (LONZA, Catlog No.: CC-3166) MEGM (LONZA, Catlog No.: CC-3051), Heparin (Sigma, Catlog No.: H3393), Penstrep (HiMedia, Catlog No.: A002)
Prostosphere Media Preparation (For 100 mL): 1 g methyl cellulose autoclaved with magnetic stirrer, 100 mL plain media (Prostate Epithelial Basal Medium) was added and dissolved, under magnetic stirring. After complete dissolution, Insulin—40 μL, B27—2 mL, EGF—80 μL, Penstrep—1 ml was added.
Procedure—The cells were trypsinised and made into single-cell suspension by passing through cell strainers (100 μl and 40 μl, respectively), The cells were diluted at a concentration of 2000 cells/100 μL and suspended in either Mammosphere (for breast cell lines) or Prostosphere (for prostate cell lines). 100 μL of this suspension was added into each well of 96-well suspension plates and incubated at 37 C, 50 CO2 for 24 hrs. Appropriate concentrations of the drugs (2 L) were added into respective wells with 100 μL of stem cell culture medium. Plates were incubated at 37° C., 50% CO2 for 72 hrs. After incubation, 2.5 μL of the respective drug concentration and 50 μL of stem cell culture medium were added into each well and the plates were further incubated at 37° C., 500 CO2 for 72 hrs. 3 μL of the respective drug concentration was added with 50 μL of stem cell culture medium again after incubation and plates were reincubated for 72 hrs at 37° C., 500 CO2. Number of primary spheres formed for each concentration were counted. The spheres were converted to 0 viability of spheres compared to untreated (Growth Control with DMSO, GCD).

[2] = tested on: PC3 prostate cancer cell line; assay: Soft agar colony-formation assay, PC3; assay type: cell-based; details: 1 week, Alamar Blue, read-out: IC50 in micromolar, PC3 (Soft Agar Assay)
Method: (§1) The Soft Agar Colony-formation Assay is an anchorage-independent growth assay in soft agar, which is one of the most stringent assays for detecting malignant transformation of cells. For this assay, malignant cells are cultured with appropriate controls in soft agar medium for 1-2 weeks. Following this incubation period, formed colonies can either be analyzed morphologically using cell stain and quantifying the number of colonies formed.
(§2) Briefly, for Soft Agar Assay a mixture of 50 ul of 2× medium (taken appropriately as per cell line) and 50 ul of 1.2% Bacto Agar were plated on to each well of 96 well micro titer assay plate. 10 ul of cells (of specific plating efficiency pre standardized for respective cell line) were mixed with 20 ul of 2× medium and 30 ul of 0.8% of Bacto Agar and 1.6 ul of drug (of appropriate concentration) in a vial and transferred to the solidified pre layers of the assay plates. The cells were then allowed to grow and form colonies at 37° C. and 5% C02 for 1 week. An intermittent feeding with 50 ul of appropriate 2× medium was performed after 3 days of experimental set up. 16 ul of Alamar Blue (1.5 mg/ml) was then added to all the wells to quantify the developed colonies. The plates were incubated for 24 hrs at 37° C. Absorbance was then measured at 630 nm. XY graph of log Percent viability was then plotted against log drug concentration.
(§3) Following plating efficiencies were standardized for Soft Agar Assay: […]

[3] = tested on: MDAMB231 spheres (cancer stem cells); assay: In vitro sphere-forming assay (cancer stem cells), MDAMB231 in Mammosphere media; details: for 3D sphere count of MDAMB231 in Mammosphere media: 2000 cells/well, n = 6 ± S.D; for viability at 0.25 µM / viability at 2.5 µM / viability at 25 µM / viability at 0.0025 µM / viability at 0.025 µM: Homo sapiens
[4] = tested on: MDAMB231 breast cancer cell line; assay: Soft agar colony-formation assay, MDAMB231; assay type: cell-based; details: 1 week, Alamar Blue, read-out: IC50 in micromolar, MDAMB231 (Soft Agar Assay)
Method: as §1, §2, §3

[5] = tested on: MDAMB231 breast cancer cell line; assay: In vitro antiproliferative assay (MTT assay), MDAMB231; assay type: cell-based; details: 48 hrs drug incubation, read-out: IC50 in micromolar, MDAMB231 (MTT assay)
Method: (§4) MTT assay is a simple and sensitive assay where, metabolic reducing activity of the cells is measured. The increase of this activity in time is taken as a parameter of cell growth. If treatment with a drug impairs this increase, the action is a consequence of growth inhibition, cell killing or both. […] All cell lines were cultured in a 37° C. incubator with a 5% CO2 environment. Compounds were dissolved in DMSO with a concentration of 0.1M (stock solution). Cells were seeded into 96-well plates at suitable plating efficiency.
(§5) Following plating efficiencies were standardized for MTT assay:
(§6) In the MTT procedure, the cells were plated in 96 well plates as per predetermined plating efficiency (Table1). The plates were then incubated for 24 hrs in 5% CO2 atmosphere at 37° C. Appropriate concentrations of the drugs were then added to the plate and further incubation was carried out for 48 hrs (in 5% CO2 atmosphere at 37° C.). The assay plate was then centrifuged twice at 3000 rpm for 3 mins and supernatant was then discarded. 100 ul of MTT solution (0.5 mg/ml) was then added to each well of the plate and it was further incubated for 4 hrs (in 5% CO2 atmosphere at 37° C.) Following 4 hr incubation, the plate was then centrifuged twice, and supernatant was aspirated off very carefully. 200 ul of DMSO was then added to each well to solubilize. MTT crystals and mixed well by shaking the plate. XY graph of log percent viability was then plotted against log drug concentration.

[6] = tested on: PC3 prostate cancer cell line; assay: In vitro antiproliferative assay (MTT assay), PC3; assay type: cell-based; details: 48 hrs drug incubation, read-out: IC50 in micromolar, PC3 (MTT assay)
Method: as §4, §5, §6

[7] = tested on: DU145 prostate cancer cell line; assay: In vitro antiproliferative assay (MTT assay), DU145; assay type: cell-based; details: 48 hrs drug incubation, read-out: IC50 in micromolar, DU145 (MTT assay)
Method: as §4, §5, §6

[8] = read-out: % Viability of spheres (PC3)
[9] = read-out: % Viability of spheres (PC3), 0.025 uM, GCD = 100% viability
[10] = read-out: % Viability of spheres (PC3), 0.25 uM, GCD = 100% viability
[11] = read-out: % Viability of spheres (PC3), 2.5 uM, GCD = 100% viability
[12] = read-out: % Viability of spheres (PC3), 25 uM, GCD = 100% viability
[13] = MDA-MB-231, read-out: % Viability of spheres (MDAMB231)
[14] = Homo sapiens, MDA-MB-231, 168 h

SMILES | 3D sphere count of PC3 in Prostosphere media ([1]; 0.025 uM) | 3D sphere count of PC3 in Prostosphere media ([1]; 0.25 uM) | 3D sphere count of PC3 in Prostosphere media ([1]; 2.5 uM) | 3D sphere count of PC3 in Prostosphere media ([1]; 25 uM) | 3D sphere count of MDAMB231 in Mammosphere media ([3]; 0.025 uM) | 3D sphere count of MDAMB231 in Mammosphere media ([3]; 0.25 uM) | 3D sphere count of MDAMB231 in Mammosphere media ([3]; 2.5 uM) | 3D sphere count of MDAMB231 in Mammosphere media ([3]; 25 uM) | 3D sphere count of PC3 in Prostosphere media ([1]; 0.0025 uM) | viability at 0.0025 µM ([1]; GCD = 100% viability) | viability at 0.025 µM [1, 9] | viability at 0.25 µM [1, 10] | viability at 2.5 µM [1, 11] | viability at 25 µM [1, 12] | IC50 ([2]; 168 h) | 3D sphere count of MDAMB231 in Mammosphere media ([3]; 0.0025 uM) | viability at 0.0025 µM [3, 13] | viability at 0.025 µM [3, 13] | viability at 0.25 µM [3, 13] | viability at 2.5 µM [3, 13] | further results
Cl.c1ccc2c(-c3ccc4c(c3)OCO4)ccc(OCCCCCCN3CCOCC3)c2c1 [Formula V, 4-(6-(1-(benzo[d][1,3]dioxol-5-yl)naphthalen-4-yloxy)hexyl)morpholine hydrochloride] | 58(±3) | 49(±3) | 41(±2) | 30(±5) | 41(±5) | 39(±3) | 27(±3) | 19(±4) |  |  |  |  |  |  |  |  |  |  |  |  | 3D sphere count of PC3 in Prostosphere media ([1]; 250 uM): 0(±0); viability at 0.025 µM [1, 8]: 67%; viability at 0.25 µM [1, 8]: 57%; viability at 2.5 µM [1, 8]: 48%; viability at 25 µM [1, 8]: 35%; IC50 ([2]; hydrochloride): 3.98 µM; 3D sphere count of MDAMB231 in Mammosphere media ([3]; 250 uM): 0(±0); viability at 0.25 µM ([3]; MDA-MB-231, read-out: % Viability of spheres (MDAMB231), 0.25 uM, GCD = 100% viability): 47%; viability at 2.5 µM ([3]; MDA-MB-231, read-out: % Viability of spheres (MDAMB231), 2.5 uM, GCD = 100% viability): 33%; viability at 25 µM ([3]; MDA-MB-231, read-out: % Viability of spheres (MDAMB231), 25 uM, GCD = 100% viability): 23%; IC50 ([4]; hydrochloride): 2.21 µM; IC50 ([5]; hydrochloride): 9.25 µM; IC50 ([6]; hydrochloride): 6.03 µM; IC50 ([7]; hydrochloride): 9.77 µM
c1ccc2c(-c3ccc4c(c3)OCO4)ccc(OCCCCN3CCOCC3)c2c1 [Formula VIII, 4-(4-(1-(benzo[d][1,3]dioxol-5-yl)naphthalen-4-yloxy)butyl)morpholine] | 49(±3) | 41(±2) | 36(±2) | 28(±3) | 49(±4) | 39(±2) | 28(±3) | 19(±1) | 57(±2) | 69% | 59% | 50% | 44% | 34% | 2.07 µM | 54(±3) | 76% | 69% | 55 ± 2% | 39% | viability at 25 µM [3, 13]: 26%; IC50 [4, 14]: 1.73 µM; IC50 ([5]; Homo sapiens, MDA-MB-231, 48 h): 1.15 µM; IC50 ([6]; 48 h): 1.77 µM; IC50 ([7]; Homo sapiens, DU-145, 48 h): 0.723 µM
c1ccc2c(-c3ccc4c(c3)OCO4)ccc(OCCN3CCOCC3)c2c1 [Formula X, 4-(2-(1-(benzo[d][1,3]dioxol-5-yl)naphthalen-4-yloxy)ethyl)morpholine] | 61(±3) | 53(±3) | 42(±4) | 28(±3) | 42(±4) | 34(±3) | 21(±3) | 7(±3) | 74(±4) | 87% | 72% | 62% | 49% | 33% | 10.3 µM | 57(±5) | 69% | 51% | 41% | 25% | viability at 25 µM [3, 13]: 8%; IC50 [4, 14]: 4.18 µM; IC50 ([5]; Homo sapiens, MDA-MB-231, 48 h): 5.36 µM; IC50 ([6]; 48 h): 4 µM; IC50 ([7]; Homo sapiens, DU-145, 48 h): 5.96 µM
